Measurements published in patent publication US20140045856A1, “4-Methyl-2,3,5,9,9b-pentaaza-cyclopenta[a]naphthalenes” (BOEHRINGER INGELHEIM INTERNATIONAL GMBH, priority 2012, published 2014).
Where two headings read alike, the source gives them in different places.

Assays:
PDE2A = PDE2A (Homo sapiens, UniProt O00408); assay: PDE 2A assay with fluorescent substrate (IMAP, fluorescence polarization); type: biochemical; settings: read-out: PDE2 IC50
Text: (§1) c) Phosphodiesterase (PDE) 2A and 10 Assay with Fluorescent Substrate
(§2) The PDE reaction cleaves cAMP to AMP. The IMAP system (Molecular Device) using fluorescence polarization (FP) as detection principle was used to measure enzyme activity. A fluorescent labeled cAMP was used as substrate for the reaction, generating a labeled AMP. The fluorescent AMP binds specifically to the large M(III)-based nano-particles which reduces the rotational speed of the substrate and thus increases its polarization.
(§3) The inhibition of PDE 2A or 10 enzyme activity was assessed using IMAP-Phosphodiesterase-cAMP fluorescence labeled substrate (Molecular Devices, Order No. R7506), IMAP TR-FRET screening express (Molecular Devices, Order No. R8160, the TR-FRET component will not be used) and PDE 2A or PDE10 protein expressed upon baculovirus infection in SF9 cells. The cells were incubated after infection for ˜3 days and protein production was confirmed by Western Blot. The cells were collected by centrifugation and the pellet frozen in liquid nitrogen before it was resuspended in PBS containing 1% Triton X-100 and protease inhibitors.
(§4) All reactions were performed in 384 well plates, Perkin Elmer black optiplates and IMAP reaction buffer with 0.1% Tween20 (kit component)
(§5) Compounds were serial diluted in DMSO. With an intermediate dilution step with reaction buffer DMSO concentration was reduced to achieve 1% DMSO in the assay reaction. Setup of the assay started with 10 μl enzyme (˜10 ng/well, depending on prep. batch), 5 μl compound, reaction was started by addition of 5 μl labeled cAMP (30 nM, final concentration), immediately mixed for 15 seconds on a Eppendorf mixmate (2000 rpm) followed by an incubation at room temperature for 90 minutes in the dark. Reaction is stopped by adding of 60 μl binding buffer for FP/cAMP (kit component).
(§6) Each assay plate contained wells with vehicle controls (1% DMSO) for the measurement of non-inhibited reaction (=100% control) and wells without enzyme as 0% controls.

[1] = Metabolic stability in pooled liver microsomes; type: in vitro ADME; settings: human liver microsomes, 37° C., 1 mg/mL microsomal protein, test compound 1 μM, NADPH; for half-life at 1 μM: pooled liver microsomes, pH 7.6, read-out: Half-life - t½
Method: The metabolic stability of the compounds according to the invention has been investigated as follows:
The metabolic degradation of the test compound was assayed at 37° C. with pooled liver microsomes from various species. The final incubation volume of 100 μl per time point contains TRIS buffer pH 7.6 at room temperature (0.1 M), magnesium chloride (5 mM), microsomal protein (1 mg/mL for human and dog, 0.5 mg/mL for other species) and the test compound at a final concentration of 1 μM. Following a short preincubation period at 37° C., the reactions were initiated by addition of betanicotinamide adenine dinucleotide phosphate, reduced form (NADPH, 1 mM), and terminated by transferring an aliquot into solvent after different time points. […] The half-life was determined by the slope of the semi-logarithmic plot of the concentration-time profile.

PDE10 = PDE10 (Homo sapiens, UniProt Q9Y233); assay: PDE10 assay with fluorescent substrate (IMAP, fluorescence polarization); type: biochemical
PDE10, sequence (Q9Y233 whole entry, species assumed): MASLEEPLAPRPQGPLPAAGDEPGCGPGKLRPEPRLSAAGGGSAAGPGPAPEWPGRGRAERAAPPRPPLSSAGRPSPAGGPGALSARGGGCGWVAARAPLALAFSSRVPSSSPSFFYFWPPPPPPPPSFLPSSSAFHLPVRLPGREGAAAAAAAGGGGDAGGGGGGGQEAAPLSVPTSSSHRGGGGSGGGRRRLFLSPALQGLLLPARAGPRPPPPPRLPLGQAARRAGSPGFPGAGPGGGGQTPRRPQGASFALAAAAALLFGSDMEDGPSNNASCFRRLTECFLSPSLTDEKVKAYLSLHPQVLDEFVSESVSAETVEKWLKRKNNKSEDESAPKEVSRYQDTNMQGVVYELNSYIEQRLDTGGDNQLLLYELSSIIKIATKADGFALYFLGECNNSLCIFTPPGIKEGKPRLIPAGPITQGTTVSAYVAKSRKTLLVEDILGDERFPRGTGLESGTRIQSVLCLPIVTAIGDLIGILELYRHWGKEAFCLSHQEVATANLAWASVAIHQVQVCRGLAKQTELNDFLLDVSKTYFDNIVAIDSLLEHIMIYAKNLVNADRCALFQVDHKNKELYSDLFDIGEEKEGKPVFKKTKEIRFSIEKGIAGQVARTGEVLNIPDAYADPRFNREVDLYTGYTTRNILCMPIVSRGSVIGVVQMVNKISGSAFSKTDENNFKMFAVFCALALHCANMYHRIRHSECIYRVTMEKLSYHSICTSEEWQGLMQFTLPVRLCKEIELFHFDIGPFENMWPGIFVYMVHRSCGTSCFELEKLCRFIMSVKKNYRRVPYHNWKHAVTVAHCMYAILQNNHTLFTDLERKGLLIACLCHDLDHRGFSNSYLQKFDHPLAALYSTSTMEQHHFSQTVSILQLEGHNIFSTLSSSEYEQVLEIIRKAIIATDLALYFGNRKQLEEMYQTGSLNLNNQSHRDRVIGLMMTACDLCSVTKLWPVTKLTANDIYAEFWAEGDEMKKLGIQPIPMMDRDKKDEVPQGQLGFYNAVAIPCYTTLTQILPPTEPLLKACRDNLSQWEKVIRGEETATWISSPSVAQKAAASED
Text: as §1, §2, §3, §4, §5, §6

[2] = Animal experiments and sample analysis: plasma, brain and CSF concentration; type: in vivo; settings: rat; for concentration at 0.5 h / Kp at 0.5 h: 0.5 h between administration and CSF sampling; for concentration at 0.5 h / concentration at 2 h: doses of 10.0 or 5 μmol/kg; for concentration at 2 h / Kp at 2 h: 2 h between administration and CSF sampling
Method: Test compounds were administered to animals (rat) different routes at doses of 10.0 or 5 μmol/kg, (both oral and intravenous). After compound administration, the animals were sacrificed in a CO2 chamber and CSF samples were carefully collected by puncture of the cisterna magna. Immediately after CSF sampling, blood was taken by heart puncture and brains were dissected out. Blood was collected in EDTA-coated microvettes and plasma was prepared by centrifugation. Concentration of the test compounds in plasma, CSF or brain homogenate was determined using HPLC-MS-MS.

[3] = brain, read-out: c(brain)/c(plasma)

PDE2A, sequence (O00408 whole entry, species assumed): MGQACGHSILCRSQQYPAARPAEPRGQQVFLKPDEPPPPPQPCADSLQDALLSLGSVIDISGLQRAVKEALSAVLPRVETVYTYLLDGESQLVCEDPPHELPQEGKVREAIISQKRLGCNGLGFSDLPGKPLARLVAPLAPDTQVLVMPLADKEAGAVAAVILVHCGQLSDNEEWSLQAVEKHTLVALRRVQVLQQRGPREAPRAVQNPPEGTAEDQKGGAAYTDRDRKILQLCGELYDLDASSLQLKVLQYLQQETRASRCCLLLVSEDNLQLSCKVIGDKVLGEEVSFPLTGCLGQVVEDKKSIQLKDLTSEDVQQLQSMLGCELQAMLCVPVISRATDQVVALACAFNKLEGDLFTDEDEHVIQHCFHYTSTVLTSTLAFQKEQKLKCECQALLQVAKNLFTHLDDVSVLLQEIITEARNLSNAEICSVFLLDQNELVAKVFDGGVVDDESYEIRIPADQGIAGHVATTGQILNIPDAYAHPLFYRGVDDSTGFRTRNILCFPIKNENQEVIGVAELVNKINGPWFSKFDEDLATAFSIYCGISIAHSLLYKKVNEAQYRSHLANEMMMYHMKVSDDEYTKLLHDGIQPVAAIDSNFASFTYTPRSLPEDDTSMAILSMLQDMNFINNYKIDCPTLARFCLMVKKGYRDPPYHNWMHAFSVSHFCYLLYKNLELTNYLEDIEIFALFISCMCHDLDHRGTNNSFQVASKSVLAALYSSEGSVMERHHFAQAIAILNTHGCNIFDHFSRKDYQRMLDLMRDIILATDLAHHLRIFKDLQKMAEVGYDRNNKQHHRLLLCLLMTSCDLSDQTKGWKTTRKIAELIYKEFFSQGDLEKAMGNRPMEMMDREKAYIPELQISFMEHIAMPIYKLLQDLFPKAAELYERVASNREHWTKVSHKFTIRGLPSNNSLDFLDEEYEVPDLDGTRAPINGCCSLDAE

SMILES	IC50 (PDE2A)	Half-life - t½ [1]	IC50 (PDE10)	also measured
Cc1ccc2nc(C)c3nnc(-c4cc(OCC(C)(C)O)ccc4Cl)n3c2n1 [Example 46]	50 nM	2.17 h		
Cc1nc2cccnc2n2c(-c3cc(C4(O)CCOC4)ccc3Cl)nnc12 (single isomer, unassigned) [Example 99]	125 nM	2.17 h	1510 nM	
Cc1nc2cccnc2n2c(-c3cc(OCC(C)(C)O)ccc3Cl)nnc12 [Example 44]	156 nM	2.17 h	6040 nM	concentration at 0.5 h ([2]; brain, read-out: conc brain): 670 nM; Kp at 0.5 h [2, 3]: 0.31; concentration at 0.5 h ([2]; plasma, read-out: conc plasma): 2190 nM; concentration at 0.5 h ([2]; read-out: conc CSF): 228 nM; Kp at 0.5 h ([2]; read-out: c(CSF)/c(plasma)): 0.1
Cc1ccc(C2(O)CCOCC2O)cc1-c1nnc2c(C)nc3ccc(C4CC4)nc3n12 (single isomer, unassigned) [Example 104b]	30 nM	2.17 h	9760 nM	
Cc1ccc(OCC2(O)CCC2)cc1-c1nnc2c(C)nc3cccnc3n12 [Example 50]	194 nM	2.17 h	7120 nM	
Cc1ccc(CCC(C)(C)O)cc1-c1nnc2c(C)nc3cccnc3n12 [Example 67]	175 nM	2.17 h	3900 nM	
Cc1nc2ccc(C(C)C)nc2n2c(-c3cc(C4(O)CCC4)ccc3F)nnc12 [Example 92]	2 nM		553 nM	
Cc1ccc2nc(C)c3nnc(-c4cc(C(O)C(C)C)ccc4Cl)n3c2n1 (stereo not shown) [Example 59]	8 nM		936 nM	half-life at 1 μM [1]: 0.817 h
Cc1nc2ccc(C(C)C)nc2n2c(-c3cc(O)ccc3F)nnc12 [Example 8]	2 nM		8 nM	
Cc1ccc(C2(O)CCOCC2O)cc1-c1nnc2c(C)nc3ccc(C4CC4)nc3n12 (racemic) [Example 104]	36 nM	2.17 h	7720 nM	
Cc1ccc(C2(O)CCC2)cc1-c1nnc2c(C)nc3cccnc3n12 [Example 73]	189 nM	2.17 h		
Cc1nc2cccnc2n2c(-c3cc(C4(O)CCC4)ccc3F)nnc12 [Example 86]	434 nM		5750 nM	
Cc1nc2ccc(C3CC3)nc2n2c(-c3cc(OC4COCC4O)ccc3Cl)nnc12 (single isomer, unassigned) [Example 58c]		2.17 h		
Cc1ccc(CC(C)(C)O)cc1-c1nnc2c(C)nc3ccc(C4CC4)nc3n12 [Example 81]	7 nM		5380 nM	
Cc1nc2cccnc2n2c(-c3cc(OCC4(O)CCC4)ccc3F)nnc12 [Example 53]	140 nM		2830 nM	
Cc1cnc2c(c1)nc(C)c1nnc(-c3cc(O)ccc3Cl)n12 [Example 11]	59 nM		123 nM	
Cc1nc2cccnc2n2c(-c3cc(C4(O)CCOC4)ccc3Cl)nnc12 (single isomer, unassigned) [Example 98]	139 nM		1560 nM	
Cc1nc2cccnc2n2c(-c3cc(OC4COCCC4O)ccc3Cl)nnc12 (single isomer, unassigned) [Example 58]	143 nM	2.17 h	663 nM	
Cc1nc2ccc(C3CC3)nc2n2c(-c3cc(OC4COCCC4O)ccc3Cl)nnc12 (single isomer, unassigned) [Example 109d]	4 nM		1830 nM	
Cc1ccc(C2(O)CCOCC2)cc1-c1nnc2c(C)nc3ccc(C4CC4)nc3n12 [Example 103]	3 nM		1010 nM	
Cc1ccc(C2(O)CCOCC2O)cc1-c1nnc2c(C)nc3ccc(C4CC4)nc3n12 (single isomer, unassigned) [Example 104a]	40 nM	2.17 h	3230 nM	
Cc1nc2ccc(C(C)C)nc2n2c(-c3cc(OCC(C)(C)O)ccc3F)nnc12 [Example 52]	11 nM	2.17 h	1200 nM	
Cc1nc2ccc(C3CC3)nc2n2c(-c3cc(OC4CCOCC4O)ccc3Cl)nnc12 (single isomer, unassigned) [Example 109b]	9 nM		1090 nM	
Cc1ccc2nc(C)c3nnc(-c4cc(C(C)(C)O)ccc4Cl)n3c2n1 [Example 71]	109 nM	2.17 h		
Cc1nc2cccnc2n2c(-c3cc(C(C)(C)O)ccc3Cl)nnc12 [Example 70]	163 nM	2.17 h	8620 nM	concentration at 2 h ([2]; brain, read-out: conc brain): 695 nM; Kp at 2 h [2, 3]: 0.29; concentration at 2 h ([2]; plasma, read-out: conc plasma): 2380 nM; concentration at 2 h ([2]; read-out: conc CSF): 276 nM; Kp at 2 h ([2]; read-out: c(CSF)/c(plasma)): 0.12
Cc1nc2ccc(C3CC3)nc2n2c(-c3cc(OC4COCC4O)ccc3Cl)nnc12 (racemic) [Example 58a]		2.17 h		

SMILES	IC50 (PDE2A)	Half-life - t½ [1]	IC50 (PDE10)	also measured
Cc1nc2ccc(C(C)C)nc2n2c(-c3cc(C4(O)CCC4)ccc3Cl)nnc12 [Example 91]	1 nM		77 nM	
Cc1ccc2nc(C)c3nnc(-c4cc(C(C)O)ccc4Cl)n3c2n1 (stereo not shown) [Example 63]	60 nM	2.17 h	1710 nM	
Cc1nc2ccc(C(F)(F)F)nc2n2c(-c3cc(OC4COCC4O)ccc3F)nnc12 (single isomer, unassigned) [Example 106b]	50 nM		2500 nM	
Cc1nc2ccc(C3(C)CC3)nc2n2c(-c3cc(C(C)(C)O)ccc3F)nnc12 [Example 72]	32 nM	2.17 h		
Cc1nc2cccnc2n2c(-c3cc(OC4COCC4O)ccc3Cl)nnc12 (single isomer, unassigned) [Example 55a]		2.17 h	2440 nM	
Cc1ccc(OC2COCC2O)cc1-c1nnc2c(C)nc3ccc(C4CC4)nc3n12 (single isomer, unassigned) [Example 57a]		2.17 h		
Cc1nc2cccnc2n2c(-c3cc(OC[C@@H](C)O)ccc3Cl)nnc12 [Example 17]		2.17 h		
Cc1nc2ccc(C3CC3)nc2n2c(-c3cc(OC4COCC4O)ccc3Cl)nnc12 (single isomer, unassigned) [Example 58b]		2.17 h		
Cc1ccc(C(C)(C)CO)cc1-c1nnc2c(C)nc3ccc(C4CC4)nc3n12 [Example 100]	17 nM		3860 nM	half-life at 1 μM [1]: 0.2 h
Cc1ccc(OCC(C)(C)O)cc1-c1nnc2c(C)nc3ccc(C(C)C)nc3n12 [Example 51]	9 nM	2.17 h		
Cc1ccc2nc(C)c3nnc(-c4cc(C5(O)CCC5)ccc4C)n3c2n1 [Example 102]	103 nM	2.17 h	2260 nM	
Cc1nc2ccc(C3CC3)nc2n2c(-c3cc(OC4COCCC4O)ccc3Cl)nnc12 (single isomer, unassigned) [Example 109a]	14 nM		1670 nM	
Cc1nc2ccc(C3CC3)nc2n2c(-c3cc(OC4COCCC4O)ccc3F)nnc12 (single isomer, unassigned) [Example 108b]	[…]		594 nM	
CCC(O)c1ccc(Cl)c(-c2nnc3c(C)nc4ccc(C)nc4n23)c1 (stereo not shown) [Example 62]	11 nM	2.17 h		
Cc1nc2ccc(C3CC3)nc2n2c(-c3cc(C4(O)CCOCC4)ccc3Cl)nnc12 [Example 94]	1 nM		2720 nM	
Cc1ccc(C(C)(C)O)cc1-c1nnc2c(C)nc3ccc(C(C)C)nc3n12 [Example 78]	10 nM		2850 nM	
Cc1nc2ccc(C(F)(F)F)nc2n2c(-c3cc(O)ccc3Cl)nnc12 [Example 12]	9 nM		44 nM	
Cc1nc2ccc(C3CC3)nc2n2c(-c3cc(O)ccc3Cl)nnc12 [Example 9]	1 nM		15 nM	
Cc1ccc(OC2COCC2O)cc1-c1nnc2c(C)nc3ccc(C4CC4)nc3n12 (racemic) [Example 57]		2.17 h		
Cc1ccc(O)cc1-c1nnc2c(C)nc3ccc(C(F)(F)F)nc3n12 [Example 12a]	36 nM		170 nM	
Cc1nc2cccnc2n2c(-c3cc(C4(O)CCOC4)ccc3Cl)nnc12 (stereo not shown) [Example 74]	131 nM		2340 nM	
Cc1ccc2nc(C)c3nnc(-c4cc(C5(O)CCC5)ccc4F)n3c2n1 [Example 90]	103 nM		485 nM	
Cc1nc2ccc(C3CC3)nc2n2c(-c3cc(CCC(C)(C)O)ccc3Cl)nnc12 [Example 69]	1 nM		891 nM	
Cc1ccc2nc(C)c3nnc(-c4cc(C5(O)CCC5)ccc4Cl)n3c2n1 [Example 89]		2.17 h	187 nM	
Cc1nc2cc(C(C)C)cnc2n2c(-c3cc(OCC(C)(C)O)ccc3Cl)nnc12 [Example 54]	58 nM	2.17 h	798 nM	
